The values that follow come from US7977388B2, “Quinone derivative 2,3-dimethoxy-5-methyl-6-(10-hydroxydecyl)-1,4-benzoquinone for the treatment of muscular dystrophies” (Santhera Pharmaceuticals (Schweiz) AG, priority 2005, dated 2011).

The test has as its system dystrophin-deficient mdx mouse. The test is described as follows: Voluntary daily running performance of idebenone-treated mdx mice. Type of test: in vivo. How it is done:
The effect of idebenone on the running performance was tested in the dystrophin-deficient mdx mouse, a validated animal model for DMD. Starting at day 21 of age, mdx mice were treated with idebenone. Their daily running performance was compared to mdx mice treated with vehicle only and to non-treated wild-type mice. For this, idebenone was dissolved in 0.5% w/v carboxymethylcellulose (CMC) to a final concentration of 20 mg/ml. Idebenone (20 mg/ml in 0.5% CMC) was applied once a day by gavage feeding. The final dose of idebenone at all time points was 200 mg/kg body weight. Control mice received the same amount of vehicle only. […] Idebenone treated mdx mice performed clearly better compared to the vehicle-treated mdx mice from the start of the analysis.

Turning to `COC1=C(OC)C(=O)C(CCCCCCCCCCO)=C(C)C1=O` [idebenone, 2,3-dimethoxy-5-methyl-6-(10-hydroxydecyl)-1,4-benzoquinone], where the note is “mdx mice treated daily with idebenone vs vehicle-treated mdx and wild-type mice, distance in meters”, the “Total daily running distance” value is listed as “clearly increased”. The Daily running performance entry (mdx mice, 200 mg/kg body weight once a day by gavage in 0.5% CMC from day 21 of age, analysed 29-84 days of age, vs vehicle-treated mdx mice) is reported as “prominent increase”.
